The nature of series [1]: Molar enthalpy of transition or fusion. To be noted: Crystal; DSC.
The conditions of series [2]: Crystal; DTA.

± gives the expanded uncertainty stated by the source.

Consider `O=C(O)[C@]1(O)C[C@@H](O)[C@@H](O)[C@H](O)C1`, for which the “Molar enthalpy of transition or fusion” value in series [1] worked out at 12.1 ± 0.526 kcal/mol. Moreover, in series [2], the Normal melting temperature stood at 167.01 ± 1.1 °C.

(Values after the NIST ThermoML archive (doi:10.1016/j.jct.2016.04.002).)
